Experimental data taken from patent US20250114338A1, “TETRAHYDRO-PYRIDO[3,4-b]INDOLE ESTROGEN RECEPTOR MODULATORS AND USES THEREOF” (Genentech, Inc., priority 2014, published 2025).

Test system: ER-alpha MCF7
Experiment: ER-alpha MCF7 HCS EC50; stated as measured by in vitro cell proliferation assays of Examples 902 and 903
Type: cell-based
Details: Homo sapiens, Table 2
Excerpt: The CellTiter-Glo® Luminescent Cell Viability Assay is a homogeneous method to determine the number of viable cells in culture based on quantitation of the ATP present, which signals the presence of metabolically active cells. The CellTiter-Glo® Assay is designed for use with multiwell plate formats, making it ideal for automated high-throughput screening (HTS), cell proliferation and cytotoxicity assays. The homogeneous assay procedure involves adding a single reagent (CellTiter-Glo® Reagent) directly to cells cultured in serum-supplemented medium. Cell washing, removal of medium or multiple pipetting steps are not required. The Cell Titer-Glo® Luminescent Cell Viability Assay, including reagents and protocol are commercially available (Promega Corp., Madison, WI, Technical Bulletin TB288).
The assay assesses the ability of compounds to enter cells and inhibit cell proliferation. The assay principle is based on the determination of the number of viable cells present by quantitating the ATP present in a homogenous assay where addition of the Cell Titer-Glo® reagent results in cell lysis and generation of a luminescent signal through the luciferase reaction. The luminescent signal is proportional to the amount of ATP present.
Cell Culture Medium: RPMI or DMEM high glucose, 10% Fetal Bovine Serum, 2 mM L-Glutamine, P/S. Incubate O/N (overnight) at 37° C., 5% CO2.
Day 2—Add Drug to Cells, Compound Dilution, DMSO Plates (serial 1:2 for 9 points). Add 20 μl of compound at 10 mM in the 2nd column of 96 well plate. […] Add 147 μl of Media into all wells. Transfer 3 μl of DMSO+ compound from each well in the DMSO Plate to each corresponding well on Media Plate using Rapidplate® (Caliper, a Perkin-Elmer Co.). For 2 drug combination studies, transfer one drug 1.5 μl of DMSO+ compound from each well in the DMSO Plate to each corresponding well on Media Plate using Rapidplate. Then, transfer another drug 1.5 μl to the medium plate.
Drug Addition to Cells, Cell Plate (1:10 dilution): Add 6 μl of media+ compound directly to cells (54 μl of media on the cells already). Incubate 3 days at 37° C., 5% CO2 in an incubator that will not be opened often.
Day 5—Develop Plates, Thaw Cell Titer Glo Buffer at room temperature: Remove Cell Plates from 37° C. and equilibrate to room temperature for about 30 minutes. Add Cell Titer-Glo® Buffer to Cell Titer-Glo® Substrate (bottle to bottle). Add 30 μl Cell Titer-Glo® Reagent (Promega cat. #G7572) to each well of cells. Place on plate shaker for about 30 minutes. Read luminescence on Analyst HT Plate Reader (half second per well).
Cell viability assays and combination assays: Cells were seeded at 1000-2000 cells/well in 384-well plates for 16 h. On day two, nine serial 1:2 compound dilutions were made in DMSO in a 96 well plate. The compounds were further diluted into growth media using a Rapidplate® robot (Zymark Corp., Hopkinton, MA). The diluted compounds were then added to quadruplicate wells in 384-well cell plates and incubated at 37° C. and 5% CO2. After 4 days, relative numbers of viable cells were measured by luminescence using Cell Titer-Glo® (Promega) according to the manufacturer's instructions and read on a Wallac Multilabel Reader® (PerkinElmer, Foster City). EC50 values were calculated using Prism® 4.0 software (GraphPad, San Diego).
5 ul of each individual compound concentration and each control compound was transferred to the cell plate. Fulvestrant was added to control wells at a final concentration of 100 nM). DMSO was added to negative control wells (0.2% v/v).

SMILES	EC50 (MCF7, MCF7 cells) [nM]	EC50 (MCF7 cells) [nM]
C[C@@H]1Cc2c([nH]c3ccccc23)[C@@H](c2c(F)cc(OCCN3CC(CF)C3)cc2F)N1C[C@@](C)(F)CO [Example 155, (2R)-3-[(1R,3R)-1-[2,6-difluoro-4-[2-[3-(fluoromethyl)azetidin-1-yl]ethoxy]phenyl]-3-methyl-1,3,4,9-tetrahydropyrido[3,4-b]indol-2-yl]-2-fluoro-2-methyl-propan-1-ol]	0.0799	–
C[C@@H]1Cc2c([nH]c3ccccc23)[C@@H](c2ccc(OCCN3CC(CF)C3)cc2)N1CC(C)(C)F [Example 156, (1R,3R)-1-[4-[2-[3-(fluoromethyl)azetidin-1-yl]ethoxy]phenyl]-2-(2-fluoro-2-methyl-propyl)-3-methyl-1,3,4,9-tetrahydropyrido[3,4-b]indole]	0.335	–
C[C@@H]1Cc2c([nH]c3ccccc23)[C@@H](c2c(F)cc(OCCN3CC(CF)C3)cc2F)N1C(=O)CC1CC1 [Example 157, 2-cyclopropyl-1-[(1R,3R)-1-[2,6-difluoro-4-[2-[3-(fluoromethyl)azetidin-1-yl]ethoxy]phenyl]-3-methyl-1,3,4,9-tetrahydropyrido[3,4-b]indol-2-yl]ethanone]	5	–
C[C@@H]1Cc2c([nH]c3ccccc23)[C@@H](c2c(F)cc(OCCN3CC(CF)C3)cc2F)N1C(=O)CC1CCC1 [Example 158, 2-cyclobutyl-1-[(1R,3R)-1-[2,6-difluoro-4-[2-[3-(fluoromethyl)azetidin-1-yl]ethoxy]phenyl]-3-methyl-1,3,4,9-tetrahydropyrido[3,4-b]indol-2-yl]ethanone]	10	–
C[C@@H]1Cc2c([nH]c3ccccc23)[C@@H](c2c(F)cc(OCCN3CC(CF)C3)cc2F)N1C(=O)C(C)(F)F [Example 159, 1-[(1R,3R)-1-[2,6-difluoro-4-[2-[3-(fluoromethyl)azetidin-1-yl]ethoxy]phenyl]-3-methyl-1,3,4,9-tetrahydropyrido[3,4-b]indol-2-yl]-2,2-difluoro-propan-1-one]	–	0.147
C[C@@H]1Cc2c([nH]c3ccccc23)[C@@H](c2c(F)cc(OCCN3CC(C)(CF)C3)cc2F)N1CC(C)(C)F [Example 160, (1R,3R)-1-[2,6-difluoro-4-[2-[3-(fluoromethyl)-3-methyl-azetidin-1-yl]ethoxy]phenyl]-2-(2-fluoro-2-methyl-propyl)-3-methyl-1,3,4,9-tetrahydropyrido[3,4-b]indole]	0.285	–
C[C@@H]1Cc2c([nH]c3ccccc23)[C@@H](c2c(F)cc(OC3CN(C)C3)cc2F)N1CC(C)(C)F [Example 161, (1R,3R)-1-[2,6-difluoro-4-(1-methylazetidin-3-yl)oxy-phenyl]-2-(2-fluoro-2-methyl-propyl)-3-methyl-1,3,4,9-tetrahydropyrido[3,4-b]indole]	0.0413	–
CCN1CC(Oc2cc(F)c([C@@H]3c4[nH]c5ccccc5c4C[C@@H](C)N3CC(C)(C)F)c(F)c2)C1 [Example 162, (1R,3R)-1-[4-(1-ethylazetidin-3-yl)oxy-2,6-difluoro-phenyl]-2-(2-fluoro-2-methyl-propyl)-3-methyl-1,3,4,9-tetrahydropyrido[3,4-b]indole]	0.0528	–
CCCCCN1CC(Oc2cc(F)c([C@@H]3c4[nH]c5ccccc5c4C[C@@H](C)N3CC(C)(C)F)c(F)c2)C1 [Example 163, (1R,3R)-1-[2,6-difluoro-4-(1-pentylazetidin-3-yl)oxy-phenyl]-2-(2-fluoro-2-methyl-propyl)-3-methyl-1,3,4,9-tetrahydropyrido[3,4-b]indole]	0.457	–
C[C@@H]1Cc2c([nH]c3ccccc23)[C@@H](c2c(F)cc(OC3CN(CC4CC4)C3)cc2F)N1CC(C)(C)F [Example 164, (1R,3R)-1-[4-[1-(cyclopropylmethyl)azetidin-3-yl]oxy-2,6-difluoro-phenyl]-2-(2-fluoro-2-methyl-propyl)-3-methyl-1,3,4,9-tetrahydropyrido[3,4-b]indole]	0.216	–
C[C@@H]1Cc2c([nH]c3ccccc23)[C@@H](c2c(F)cc(OC3CN(CC4CCCC4)C3)cc2F)N1CC(C)(C)F [Example 165, (1R,3R)-1-[4-[1-(cyclopentylmethyl)azetidin-3-yl]oxy-2,6-difluoro-phenyl]-2-(2-fluoro-2-methyl-propyl)-3-methyl-1,3,4,9-tetrahydropyrido[3,4-b]indole]	2	–
C[C@@H]1Cc2c([nH]c3ccccc23)[C@@H](c2c(F)cc(OC3CN(CCF)C3)cc2F)N1CC(C)(C)F [Example 166, (1R,3R)-1-[2,6-difluoro-4-[1-(2-fluoroethyl)azetidin-3-yl]oxy-phenyl]-2-(2-fluoro-2-methyl-propyl)-3-methyl-1,3,4,9-tetrahydropyrido[3,4-b]indole]	0.175	–
C#CCN1CC(Oc2cc(F)c([C@@H]3c4[nH]c5ccccc5c4C[C@@H](C)N3CC(C)(C)F)c(F)c2)C1 [Example 167, (1R,3R)-1-[2,6-difluoro-4-(1-prop-2-ynylazetidin-3-yl)oxy-phenyl]-2-(2-fluoro-2-methyl-propyl)-3-methyl-1,3,4,9-tetrahydropyrido[3,4-b]indole]	0.083	–
CC(C)N1CC(Oc2cc(F)c([C@@H]3c4[nH]c5ccccc5c4C[C@@H](C)N3CC(C)(C)F)c(F)c2)C1 [Example 168, (1R,3R)-1-[2,6-difluoro-4-(1-isopropylazetidin-3-yl)oxy-phenyl]-2-(2-fluoro-2-methyl-propyl)-3-methyl-1,3,4,9-tetrahydropyrido[3,4-b]indole]	0.122	–
CC(C)CN1CC(Oc2cc(F)c([C@@H]3c4[nH]c5ccccc5c4C[C@@H](C)N3CC(C)(C)F)c(F)c2)C1 [Example 169, (1R,3R)-1-[2,6-difluoro-4-(1-isobutylazetidin-3-yl)oxy-phenyl]-2-(2-fluoro-2-methyl-propyl)-3-methyl-1,3,4,9-tetrahydropyrido[3,4-b]indole]	0.409	–
C[C@@H]1Cc2c([nH]c3ccccc23)[C@@H](c2c(F)cc(OC3CN(C(=O)OC(C)(C)C)C3)cc2F)N1CC(C)(C)F [Example 170, tert-butyl 3-[3,5-difluoro-4-[(1R,3R)-2-(2-fluoro-2-methyl-propyl)-3-methyl-1,3,4,9-tetrahydropyrido[3,4-b]indol-1-yl]phenoxy]azetidine-1-carboxylate]	1	–
CC[C@@H]1Cc2c([nH]c3ccccc23)[C@@H](c2c(F)cc(OCCN3CC(CF)C3)cc2F)N1CC(C)(C)F [Example 171, (1R,3R)-1-(2,6-difluoro-4-(2-(3-(fluoromethyl)azetidin-1-yl)ethoxy)phenyl)-3-ethyl-2-(2-fluoro-2-methylpropyl)-2,3,4,9-tetrahydro-1H-pyrido[3,4-b]indole]	0.471	–
CC[C@H]1Cc2c([nH]c3ccccc23)[C@@H](c2c(F)cc(OCCN3CC(CF)C3)cc2F)N1CC(C)(C)F [Example 172, (1R,3S)-1-(2,6-difluoro-4-(2-(3-(fluoromethyl)azetidin-1-yl)ethoxy)phenyl)-3-ethyl-2-(2-fluoro-2-methylpropyl)-2,3,4,9-tetrahydro-1H-pyrido[3,4-b]indole]	17	–
C[C@@H]1Cc2c([nH]c3ccccc23)[C@@H](c2c(F)cc(OCCN3CC(CF)C3)cc2F)N1CC1(C)CCC1 [Example 173, (1R,3R)-1-[2,6-difluoro-4-[2-[3-(fluoromethyl)azetidin-1-yl]ethoxy]phenyl]-3-methyl-2-[(1-methylcyclobutyl)methyl]-1,3,4,9-tetrahydropyrido[3,4-b]indole]	1	–
C[C@@H]1Cc2c([nH]c3ccccc23)[C@@H](c2c(F)cc(OCCN3CC(CF)C3)cc2F)N1CC(F)(F)F [Example 174, (1R,3R)-1-[2,6-difluoro-4-[2-[3-(fluoromethyl)azetidin-1-yl]ethoxy]phenyl]-3-methyl-2-(2,2,2-trifluoroethyl)-1,3,4,9-tetrahydropyrido[3,4-b]indole]	0.285	–
